Consider nine sequences from patent US8211436B2, “Anticancer vaccine and diagnostic methods and reagents” (University of Pittsburgh—Of the Commonwealth System of …, priority 2001, dated 2012).

In one test the test system is MS-A2/CD80 tumor. Description: CTL assay, peptide-sensitized T cells against MS-A2/CD80. It is filed as cell-based, human. To be noted: SCCHN Patient A T cells, target MS-A2/CD80. The protocol: (§1) Stimulating CD8^+ T cells from breast cancer and SCCHN patients with cyclin B1 peptides in vitro. PBMCs from cancer patients were X-irradiated at 3000 Rads, loaded with […] of the indicated peptides for 2-4 hours, and mixed with autologous PBMCs in the presence of 20 U/ml IL-2 (DuPont). The T cell cultures were fed every 3-4 days with 10 U/ml IL-2, and restimulated every 10-12 days, if necessary, using peptide-loaded autologous irradiated PBMCs. All T cell cultures were grown in RPMI medium (ICN, Costa Mesa, Calif.) supplemented with 10% human AB sera (Gemini Products, Calabasas, Calif.), L-glutamine, and penicillin/streptomycin (Life Technologies).
(§2) Cytotoxicity assays. 1-2×10^6 target cells were labeled with 50 mCi of Na2^51CrO4 (Amersham, Arlington Heights, Ill.) for 90 minutes at 37° C. The labeled cells were then washed three times and plated at 1×10^3 cells/well in a 96-well V-bottom plate (Costar, Cambridge, Mass.) with various numbers of effector T cells. […] Supernatants were harvested using a Skatron harvesting press (Skatron Instruments, Sterling, Va.) and counted on a Cobra II series auto gamma counting system (Packard, Meriden, Conn.). […] Percent specific lysis was calculated from the following formula: % specific lysis=100×(experimental release−spontaneous release)/(maximum release−spontaneous release).

Another test has as its system K562. Kind of test: CTL assay, peptide-sensitized T cells against K562 (LAK control). It is filed as cell-based, human. To be noted: SCCHN Patient A T cells, target K562. The protocol:
as §1, §2

Another test concerns the target T1, HLA-A2.1 (Homo sapiens, UniProt P04439, D140Y/D185E/D98H/E176V/E277Q/G131W/G231S/I119V/I121R/I166T/I218V/L300P/L318F/N151K/N90K/P208A/P217A/Q86G/Q94H/R138H/R169H/T345S).
T1 construct: Peptide-induced stabilization of HLA-A2.1 molecules on T2 cells; endogenous in cells; host or cells: T2 cells
Description: HLA Class I stabilization assay on T2 cells. The settings on record: 20 mg/ml peptide, 18-20 hours, MA2.1 staining, >1 indicates binding. The method, then: HLA Class I stabilization assays. Peptide-induced stabilization of HLA-A2.1 molecules on T2 cells was done as previously described (Zeh et al., Hum. Immunol., 39(2), 79-86 (1994)). 2×10^5 T2 cells were incubated with […] of the indicated synthetic peptides in […] human B2m (Calbiochem, La Jolla, Calif.) for 18-20 hours at room temperature. The cells were then stained with the HLA-A2.1-specific antibody, MA2.1, for 45 minutes, washed with FACS Buffer (PBS, 5% FBS, and 0.01% sodium azide), and stained with a secondary FITC-conjugated anti-IgG antibody (Biosource International, Camarillo, Calif.). The cells were fixed in 4% formaldehyde prior to flow cytometry analysis. The negative control consisted of T2 cells without peptide. […] (SEQ ID NO:11). Flow cytometric analysis was done using a FACScan flow cytometer (Becton-Dickinson).

Test [1] concerns PBMCs from HLA-A*0201 SCCHN patients. Description: IFN-γ ELISPOT, PBMCs of SCCHN patients with cyclin B1 peptides. It is filed as cell-based, human. To be noted: for peptide-specific T cells, IFN-γ ELISPOT: SCCHN Patient A, absence of any in vitro stimulation; for HLA Class I-restricted T cell response, IFN-γ ELISPOT: SCCHN Patient B; for T cell response, IFN-γ ELISPOT: SCCHN Patient D; for blocking of the response with anti-Class I antibody: SCCHN Patient C. The method, then:
(§3) IFN-γ ELISPOT Assays. IFN-g ELISPOT assays were conducted as previously described (Herr et al., J. Immunol. Methods, 191(2), 131-42 (1996)). Briefly, nitrocellulose plates (Millipore, Bedford, Mass.) were coated with the anti-IFN-γ capture mAb 1-D1K (MabTech, Stockholm, Sweden) overnight at 4° C. For assays using dendritic cells as APCs, DCs were loaded with […] of the indicated peptides for 2-6 hrs, and mixed with autologous T cells at a DC:T ratio of 1:10 for 20 hours at 37° C. For assays using autologous PBMCs as APCs, PBMCs were irradiated at 3000 Rads, loaded with […] of peptides for 4 hours, and mixed with autologous T cells at an APC:T ratio of 1:5 for 40 hours at 37° C. The T cells were seeded at 3×10^3-1×10^5 cells/well. All assays were done in serum-free AIM-V medium (Gibco Life Technologies, Grand Island, N.Y.). The plates were then washed in PBS+0.1% Tween and stained with anti-IFN-γ mAb 7-B6-1 (Mabtech) for 2 hours at 37° C. The plates were washed, and the avidin-peroxidase complex (Vectastain ABC Kit, Vector Laboratories) was added to the plates for 1 hour. The plates were then developed using AEC (Sigma) substrate, and spots were quantified microscopically with an inverted phase-contrast microscope (Carl Zeiss, Hallbergmoos, Germany) along with a computer-assisted image analysis system (KS ELISPOT). For HLA Class I blocking experiments, the W6/32 antibody was added to the APCs for 30-45 minutes prior to the incubation with the T cells.
as §1

Test [2] concerns PBMCs from HLA-A2+ breast cancer patients. Kind of test: IFN-γ ELISPOT, PBMCs of breast cancer patients with cyclin B1 peptides. It is filed as cell-based, human. The protocol: as §3, §1
For test [3], the system named is CD8+ T cells from an HLA-A*0201 healthy donor. Kind of test: IFN-γ ELISPOT, naive CD8+ T cells of a healthy donor primed in vitro to synthetic cyclin B1 peptides. It is filed as cell-based, human. The settings on record: for antigen-specific IFN-γ secretion by CD8+ T cells: healthy HLA-A2.1+ donor, after several rounds of restimulation (fourth). The method, then: as §3
(§4) Priming naïve CD8^+ T cells from a healthy donor to cyclin B1 peptides in vitro. Naïve CD8^+ T cells and in vitro generated dendritic cells were purified as described above in Example 1. 2×10^4 dendritic cells were loaded overnight with […]/well peptide in 96-well U-bottom plates (Falcon, Franklin lakes, NJ) and mixed with 2×10^5 autologous naïve CD8^+ T cells the next day in the presence of 2 ng/ml IL-1b (R & D Systems, Minneapolis, Minn.), 20 U/ml IL-2 (DuPont, Wilmington, Del.), and 10 U/ml IL-4 (Schering Plough). Depending on growth kinetics, T cells were fed every 3-4 days with 10 U/ml IL-2 and 5 U/ml IL-4. T cells were restimulated every 7-10 days using peptide-loaded autologous macrophages.

For the next test, the system named is MS-A2 tumor. Kind of test: CTL assay, peptide-sensitized T cells against MS-A2. Further details: killing of the original tumor by peptide-specific T cells: dose or concentration left out as unconfirmed. It is filed as cell-based, human. The protocol:
as §4
Stimulating CD8^+ T cells from breast cancer and SCCHN patients with cyclin B1 peptides in vitro. PBMCs from cancer patients were X-irradiated at 3000 Rads, loaded with […] of the indicated peptides for 2-4 hours, and mixed with autologous PBMCs in the presence of 20 U/ml IL-2 (DuPont). […]
Cytotoxicity assays. […] Supernatants were harvested using a Skatron harvesting press (Skatron Instruments, Sterling, Va.) and counted on a Cobra II series auto gamma counting system (Packard, Meriden, Conn.). […] Percent specific lysis was calculated from the following formula: % specific lysis=100×(experimental release−spontaneous release)/(maximum release−spontaneous release).

The mark [4] stands for this setting: breast cancer Patient A, one in vitro stimulation.
Setting [5] is: breast cancer Patient C, no in vitro stimulation.
[6] abbreviates: breast cancer Patient D, no in vitro stimulation.

Take “AGYLMELCC (cyclin-derived polypeptide) [SEQ ID NO:4, tumor-derived cyclin B1 9-mer peptide]”: the “lysis of tumor by T cells sensitized to the peptide” value in the test with MS-A2/CD80 tumor is “able to lyse”; in the test with MS-A2 tumor (SCCHN Patient A T cells, target MS-A2), “to a lesser extent”. In addition, in the test on K562, the “lysis by T cells sensitized to the peptide” value is reported as “not”. For the same sequence, the “HLA-A2.1 Binding (MFI of T2 cells loaded with peptide / MFI of T2 cells with no peptide)” value in the test with HLA-A2.1 came to 1.61 X-Fold increase. Also, the “peptide-specific T cells, IFN-γ ELISPOT” value in test [1] is reported as “peptide-specific T cells also were detected”. Moreover, the “HLA Class I-restricted T cell response, IFN-γ ELISPOT” value in test [1] is reported as “HLA Class I-restricted T cell responses”. Besides, the “T cell response, IFN-γ ELISPOT” value in test [1] is “appeared specific”; in test [2] (setting [4]) it was “strong HLA Class I-restricted secondary T cell responses”; in test [2] (setting [5]) it was “peptide-specific HLA Class I-restricted T cell responses”; in test [2] (setting [6]), “strong HLA Class I-restricted T cell responses”; in test [2] (breast cancer Patients E and F), “did not respond”. In addition, the “antigen-specific IFN-γ secretion by CD8+ T cells” value (from here on “antigen-specific IFN-γ secretion”) in test [3] is on record as “detected”. In addition, the “blocking of the T cell response by anti-Class I antibody W6/32” value in test [3] (healthy donor) is “blocked”. Besides, in the test on MS-A2 tumor (healthy donor T cells primed with high peptide concentration), the “killing of the original tumor by peptide-specific T cells” value was “unable to kill the original tumor”.
Consider “AGYLMELCF (cyclin-derived polypeptide) [SEQ ID NO:3, tumor-derived cyclin B1 9-mer peptide]”, for which, in the test with HLA-A2.1, the “HLA-A2.1 Binding (MFI of T2 cells loaded with peptide / MFI of T2 cells with no peptide)” value was determined as 1.42 X-Fold increase. The “HLA Class I-restricted T cell response, IFN-γ ELISPOT” value in test [1] is reported as “HLA Class I-restricted T cell responses”.
In the case of “AGYLMELCFA (cyclin-derived polypeptide) [SEQ ID NO:6, tumor-derived cyclin B1 10-mer peptide]”, the “HLA-A2.1 Binding (MFI of T2 cells loaded with peptide / MFI of T2 cells with no peptide)” value in the test with HLA-A2.1 is recorded as 2.08 X-Fold increase. Further, the “antigen-specific IFN-γ secretion” value in test [3] is recorded as “not”.
As to “AGYLMELCM (cyclin-derived polypeptide) [SEQ ID NO:2, tumor-derived cyclin B1 9-mer peptide]”, the “HLA-A2.1 Binding (MFI of T2 cells loaded with peptide / MFI of T2 cells with no peptide)” value with HLA-A2.1 came to 1.48 X-Fold increase. Also, in test [1], the “HLA Class I-restricted T cell response, IFN-γ ELISPOT” value was “not” and the “blocking of the response with anti-Class I antibody” value was “could be blocked”. Moreover, the “antigen-specific IFN-γ secretion” value in test [3] was “not”.
On to “AGYLMELCMA (cyclin-derived polypeptide) [SEQ ID NO:5, tumor-derived cyclin B1 10-mer peptide]”, for which the “HLA-A2.1 Binding (MFI of T2 cells loaded with peptide / MFI of T2 cells with no peptide)” value with HLA-A2.1 is 1.58 X-Fold increase. In test [1], the “T cell response, IFN-γ ELISPOT” value is “appeared specific”. Besides, the “antigen-specific IFN-γ secretion” value in test [3] is listed as “not”.
Regarding “AGYLMELCV (cyclin-derived polypeptide) [SEQ ID NO:1, tumor-derived cyclin B1 9-mer peptide]”, in the test with HLA-A2.1, the “HLA-A2.1 Binding (MFI of T2 cells loaded with peptide / MFI of T2 cells with no peptide)” value is reported as 1.60 X-Fold increase. In addition, the “HLA Class I-restricted T cell response, IFN-γ ELISPOT” value in test [1] is on record as “not”. The “T cell response, IFN-γ ELISPOT” value in test [2] (breast cancer Patient B (HLA-A*0206), two in vitro stimulations) is listed as “weak secondary response”. Further, in test [3], the “antigen-specific IFN-γ secretion” value is “not”.
For “AKYLMELTM (cyclin-derived polypeptide) [SEQ ID NO:7, human (HeLa) cyclin B1 peptide from the database]”, the “lysis of tumor by T cells sensitized to the peptide” value in the test with MS-A2/CD80 tumor is reported as “able to lyse”. Also, in the test with HLA-A2.1, the “HLA-A2.1 Binding (MFI of T2 cells loaded with peptide / MFI of T2 cells with no peptide)” value came out at 2.28 X-Fold increase. In addition, the “peptide-specific T cells, IFN-γ ELISPOT” value in test [1] is “peptide-specific T cells also were detected”. Besides, in test [1], the “HLA Class I-restricted T cell response, IFN-γ ELISPOT” value is given as “HLA Class I-restricted T cell responses”. Moreover, the “T cell response, IFN-γ ELISPOT” value in test [1] is “appeared specific”; in test [2] (setting [4]), “strong HLA Class I-restricted secondary T cell responses”; in test [2] (setting [5]), “peptide-specific HLA Class I-restricted T cell responses”; in test [2] (setting [6]), “lower responses”; in test [2] (breast cancer Patients E and F), “did not respond”. Moreover, the “blocking of the response by anti-MHC Class I antibody” value in test [2] (breast cancer Patient D) is recorded as “blocked”.
In the case of “AKYLMELTML (cyclin-derived polypeptide) [SEQ ID NO:8, human (HeLa) cyclin B1 peptide from the database]”, the “HLA-A2.1 Binding (MFI of T2 cells loaded with peptide / MFI of T2 cells with no peptide)” value with HLA-A2.1 came to 2.25 X-Fold increase. Besides, the “blocking of the response with anti-Class I antibody” value in test [1] is “could be blocked”. Also, the “T cell response, IFN-γ ELISPOT” value in test [2] (setting [4]) is given as “strong HLA Class I-restricted secondary T cell responses”.
On to “ILKEPGSHV (HIV-POL-derived polypeptide) [reference compound]”, for which the “T cell response, IFN-γ ELISPOT” value is “no recognition” in test [2] (setting [4]) and “lower responses” in test [2] (setting [6]). In test [3], the “antigen-specific IFN-γ secretion” value was “not”.
